Source: patent publication US20240285634A1, “COMPOUND AND METHOD FOR TREATING CHEMOTHERAPY-ASSOCIATED GASTROINTESTINAL SIDE EFFECTS” (ONQUALITY PHARMACEUTICALS CHINA LTD., priority 2021, published 2024)

Tested on: Chemotherapeutic agent-caused diarrhea models of Balb/c mice
Test: Relieving effect on diarrhea caused by a chemotherapeutic agent (Examples 1-201)
Type: in vivo
Excerpt: Construction of mouse animal models: Chemotherapeutic agent-caused diarrhea models of Balb/c mice were constructed according to the administration mode and frequency of the chemotherapeutic agent as shown in Table 3. After administration for several days, mice developed different extents of diarrhea symptoms (as shown in FIG. 1), which were similar to the conditions in human. Thus, chemotherapeutic agent-caused diarrhea models of mice are very good models to mimic diarrhea in human caused by the chemotherapeutic agent.
Balb/c mice were fed for 1 week, and then divided into groups. The experiment was divided into a control group, a chemotherapeutic agent group, and a group of the compound as shown in Formula I, each of which comprised 10 mice, to perform the administration experiment, for which the administration dosage, mode, time and frequency were shown in Table 3. The control group: being injected or intragastrically administered with the same solvent as that used in the group of the compound as shown in Formula I (the injection mode and time were shown in Table 3), and then being injected or intragastrically administered with the same solvent as that used in the chemotherapeutic agent group (the administration mode was shown in Table 3); the chemotherapeutic agent group: being injected or intragastrically administered with the same solvent as that used in the group of the compound as shown in Formula I (the administration mode and time were shown in Table 3), and then being injected or intragastrically administered with the chemotherapeutic agent (the type, administration mode and dosage were shown in Table 3); the group of the compound as shown in Formula I: being injected or intragastrically administered with the compound as shown in Formula I (the administration mode and time were shown in Table 3), and then being administered with the chemotherapeutic agent (the administration mode and dosage were shown in Table 3).
The scoring of diarrhea can refer to the method of Akinobu Kurita (Cancer Chemother Pharmacol 2000; 46:211-20.), Grade 0: normal feces; Grade 1: mild diarrhea, the stools is slightly wet and soft; Grade 2: moderate diarrhea, loose stools and mild perianal contamination; Grade 3: severe diarrhea, watery stools and accompanied by severe perianal staining (see FIG. 1). It is regarded as effective remission when the diarrhea grading of mice in the group of the compound as shown in Formula I is reduced compared with the average diarrhea grading of mice in the chemotherapeutic agent group.
The diarrhea grading of mice was observed and recorded every day. At the end of the experiment, the number of mice in the group of the compound as shown in Formula I whose diarrhea grading was lower than that of mice in the chemotherapeutic agent group was recorded. Table 3 lists various animal experiment combinations of chemotherapeutic agents and the compound as shown in Formula I, as well as the corresponding experimental results. (Relative remission rate %=the number of mice in the group of the compound as shown in Formula I whose diarrhea has been effectively relieved/the total number of mice in the group of the compound as shown in Formula I*100%. The establishment rate of diarrhea model in the chemotherapeutic agent group was 50%-70%, that is, about 5-7 of 10 mice developed diarrhea during the experiment, and there were cases of individual mice death or not developing diarrhea.)

Question: For `CN1CCN(c2ccc(Nc3ncc4cc5n(c4n3)C3(CCCCC3)CNC5=O)nc2)CC1` [Compound I, Trilaciclib], which Relative remission rate (Ex 131, Fluorouracil 100 + irinotecan 200 mg/kg intraperitoneal single, compound 150 mg/kg oral single 24 h before, cycle 8 days) is on record?
Answer: 30%

Question: And the Relative remission rate (Ex 138, Fluorouracil 50 + oxaliplatin 5 + irinotecan 50 mg/kg intraperitoneal single, compound 100 mg/kg intraperitoneal single 0.5 h before, cycle 10 days)?
Answer: 50%

Question: What about the Relative remission rate (Ex 139, Fluorouracil 50 + oxaliplatin 5 + irinotecan 50 mg/kg intraperitoneal single, compound 100 mg/kg intraperitoneal single 4 h before, cycle 10 days) of the same compound?
Answer: 40%

Question: What about the Relative remission rate (Ex 140, Fluorouracil 50 + oxaliplatin 5 + irinotecan 50 mg/kg intraperitoneal single, compound 100 mg/kg intraperitoneal single 8 h before, cycle 10 days) of the same compound?
Answer: 40%

Question: And the Relative remission rate (Ex 141, Fluorouracil 50 + oxaliplatin 5 + irinotecan 50 mg/kg intraperitoneal single, compound 100 mg/kg intraperitoneal single 12 h before, cycle 10 days)?
Answer: 50%

Question: And the Relative remission rate (Ex 142, Fluorouracil 50 + oxaliplatin 5 + irinotecan 50 mg/kg intraperitoneal single, compound 100 mg/kg intraperitoneal single 24 h before, cycle 10 days)?
Answer: 50%

Question: And the Relative remission rate (Ex 143, Fluorouracil 50 + oxaliplatin 5 + irinotecan 50 mg/kg intraperitoneal single, compound 100 mg/kg intraperitoneal single 48 h before, cycle 10 days)?
Answer: 0%

Question: And the Relative remission rate (Ex 144, Fluorouracil 50 + oxaliplatin 5 + irinotecan 50 + tetrahydrofolic acid 90 mg/kg intravenous single, compound 100 mg/kg intravenous single 0.5 h before, cycle 10 days)?
Answer: 50%

Question: What about the Relative remission rate (Ex 145, Fluorouracil 50 + oxaliplatin 5 + irinotecan 50 + tetrahydrofolic acid 90 mg/kg intravenous single, compound 100 mg/kg intravenous single 1 h before, cycle 10 days) of the same compound?
Answer: 40%

Question: And the Relative remission rate (Ex 146, Fluorouracil 50 + oxaliplatin 5 + irinotecan 50 + tetrahydrofolic acid 90 mg/kg intravenous single, compound 100 mg/kg intravenous single 2 h before, cycle 10 days)?
Answer: 40%

Question: And the Relative remission rate (Ex 147, Fluorouracil 50 + oxaliplatin 5 + irinotecan 50 + tetrahydrofolic acid 90 mg/kg intravenous single, compound 100 mg/kg intravenous single 3 h before, cycle 10 days)?
Answer: 30%

Question: And the Relative remission rate (Ex 148, Fluorouracil 50 + oxaliplatin 5 + irinotecan 50 + tetrahydrofolic acid 90 mg/kg intravenous single, compound 100 mg/kg intravenous single 4 h before, cycle 10 days)?
Answer: 40%

Question: And the Relative remission rate (Ex 149, Fluorouracil 50 + oxaliplatin 5 + irinotecan 50 + tetrahydrofolic acid 90 mg/kg intravenous single, compound 100 mg/kg intravenous single 6 h before, cycle 10 days)?
Answer: 40%

Question: What about the Relative remission rate (Ex 150, Fluorouracil 50 + oxaliplatin 5 + irinotecan 50 + tetrahydrofolic acid 90 mg/kg intravenous single, compound 100 mg/kg intravenous single 8 h before, cycle 10 days) of the same compound?
Answer: 30%

Question: And the Relative remission rate (Ex 151, Fluorouracil 50 + oxaliplatin 5 + irinotecan 50 + tetrahydrofolic acid 90 mg/kg intravenous single, compound 100 mg/kg intravenous single 10 h before, cycle 10 days)?
Answer: 30%

Question: And the Relative remission rate (Ex 152, Fluorouracil 50 + oxaliplatin 5 + irinotecan 50 + tetrahydrofolic acid 90 mg/kg intravenous single, compound 100 mg/kg intravenous single 12 h before, cycle 10 days)?
Answer: 30%

Question: And the Relative remission rate (Ex 153, Fluorouracil 50 + oxaliplatin 5 + irinotecan 50 + tetrahydrofolic acid 90 mg/kg intravenous single, compound 100 mg/kg intravenous single 14 h before, cycle 10 days)?
Answer: 50%

Question: And the Relative remission rate (Ex 154, Fluorouracil 50 + oxaliplatin 5 + irinotecan 50 + tetrahydrofolic acid 90 mg/kg intravenous single, compound 100 mg/kg intravenous single 16 h before, cycle 10 days)?
Answer: 50%

Question: What about the Relative remission rate (Ex 155, Fluorouracil 50 + oxaliplatin 5 + irinotecan 50 + tetrahydrofolic acid 90 mg/kg intravenous single, compound 100 mg/kg intravenous single 18 h before, cycle 10 days) of the same compound?
Answer: 60%

Question: And the Relative remission rate (Ex 156, Fluorouracil 50 + oxaliplatin 5 + irinotecan 50 + tetrahydrofolic acid 90 mg/kg intravenous single, compound 100 mg/kg intravenous single 20 h before, cycle 10 days)?
Answer: 60%

Question: And the Relative remission rate (Ex 157, Fluorouracil 50 + oxaliplatin 5 + irinotecan 50 + tetrahydrofolic acid 90 mg/kg intravenous single, compound 100 mg/kg intravenous single 24 h before, cycle 10 days)?
Answer: 30%

Question: What about the Relative remission rate (Ex 158, Fluorouracil 50 + oxaliplatin 5 + irinotecan 50 + tetrahydrofolic acid 90 mg/kg intravenous single, compound 100 mg/kg intravenous single 48 h before, cycle 10 days) of the same compound?
Answer: 0%

Question: What about the Relative remission rate (Ex 159, Fluorouracil 50 + oxaliplatin 5 + irinotecan 50 + tetrahydrofolic acid 90 mg/kg intraperitoneal single, compound 100 mg/kg intraperitoneal single 0.5 h before, cycle 7 days) of the same compound?
Answer: 50%

Question: What about the Relative remission rate (Ex 160, Fluorouracil 50 + oxaliplatin 5 + irinotecan 50 + tetrahydrofolic acid 90 mg/kg intraperitoneal single, compound 100 mg/kg intraperitoneal single 24 h before, cycle 7 days) of the same compound?
Answer: 20%

Question: What about the Relative remission rate (Ex 163, Fluorouracil 50 + oxaliplatin 5 + irinotecan 50 + tetrahydrofolic acid 90 mg/kg intraperitoneal single, compound 150 mg/kg oral single 0.5 h before, cycle 7 days) of the same compound?
Answer: 40%

Question: And the Relative remission rate (Ex 164, Fluorouracil 50 + oxaliplatin 5 + irinotecan 50 + tetrahydrofolic acid 90 mg/kg intraperitoneal single, compound 150 mg/kg oral single 4 h before, cycle 7 days)?
Answer: 60%

Question: And the Relative remission rate (Ex 165, Fluorouracil 50 + oxaliplatin 5 + irinotecan 50 + tetrahydrofolic acid 90 mg/kg intraperitoneal single, compound 150 mg/kg oral single 8 h before, cycle 7 days)?
Answer: 80%
